Patent US20090011951A1, “Method of Gene Screening With Yeast Having Ergosterol Synthase Undergoing Inducible Expression” (priority 2004, published 2009)

Legend:
[1] = system: yeast; settings: known action; cited from earlier work
[2] = system: yeast (Saccharomyces cerevisiae) that inducibly expresses ERG6; test: Cycloheximide sensitivity of the strain that inducibly expresses ERG6; assay type: cell-based; settings: 30° C., 2 days, various concentrations
Experimental: The following experiments were performed to confirm a difference in drug resistance of yeast that inducibly expresses ergosterol depending on presence or absence of induction.
It was confirmed that the drug sensitivity was increased by turning off the expression of ergosterol.

SMILES	growth inhibitory action against yeast [1]	cycloheximide sensitivity ([2]; galactose medium (ERG6 induced))	cycloheximide sensitivity ([2]; glucose medium (ERG6 repressed))
CN(Cc1cnc2nc(N)nc(N)c2n1)c1ccc(C(=O)N[C@@H](CCC(=O)O)C(=O)O)cc1 [Methotrexate]	has a growth inhibitory action against yeast		
C[C@@H]1C[C@@H]([C@H](O)CC2CC(=O)NC(=O)C2)C(=O)[C@@H](C)C1 [cycloheximide]		equal to that of a pdr1 pdr3-disrupted stain (ERG6 strain)	equal to that of a pdr1 pdr3 erg6-disrupted strain
